Measured values reported in PMC9841527 (Journal of Medicinal Chemistry, 2022).

What was measured:
DOT1L = DOT1L (Homo sapiens, UniProt Q8TEK3); assay: Selectivity assay, DOT1L; assay type: biochemical; settings: compound 10 μM, 3H-SAM 1 μM
MettL3-MettL14 = MettL3-MettL14 (Homo sapiens, UniProt Q86U44); assay: Selectivity assay, MettL3-MettL14; assay type: biochemical; settings: [I] = 10 μM, [SAM] = 20 μM, 5 mM NaCl, or CamA conditions
[1] = molecular target: T1, A1 adenosine receptor (A1AR) (Homo sapiens, UniProt P30542); assay: A1AR agonist radioligand binding assay; settings: compound 10 μM, [3H]CCPA 1 nM, transfected CHO cell membranes
T1 sequence (P30542 1-326): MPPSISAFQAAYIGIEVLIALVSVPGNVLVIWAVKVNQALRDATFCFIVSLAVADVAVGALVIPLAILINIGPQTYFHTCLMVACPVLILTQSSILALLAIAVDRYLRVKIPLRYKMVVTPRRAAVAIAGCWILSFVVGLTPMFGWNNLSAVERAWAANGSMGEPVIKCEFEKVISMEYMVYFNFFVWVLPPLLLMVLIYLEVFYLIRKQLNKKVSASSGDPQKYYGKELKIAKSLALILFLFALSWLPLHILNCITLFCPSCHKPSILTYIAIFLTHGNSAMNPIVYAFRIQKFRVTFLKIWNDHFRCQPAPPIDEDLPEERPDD

PRMT1 = PRMT1 (Homo sapiens, UniProt Q99873); assay: Selectivity assay, PRMT1; assay type: biochemical; settings: compound 10 μM, 3H-SAM 1 μM
PCIF1 = PCIF1 (Homo sapiens, UniProt Q9H4Z3); assay type: biochemical
EZH2 complex = EZH2 complex (Homo sapiens, UniProt Q15910); assay: Selectivity assay, EZH2 complex; assay type: biochemical; settings: compound 10 μM, 3H-SAM 1 μM
Dam = molecular target: T2, Dam (Escherichia coli, UniProt P0AEE8); assay type: biochemical
T2 sequence (P0AEE8 1-278): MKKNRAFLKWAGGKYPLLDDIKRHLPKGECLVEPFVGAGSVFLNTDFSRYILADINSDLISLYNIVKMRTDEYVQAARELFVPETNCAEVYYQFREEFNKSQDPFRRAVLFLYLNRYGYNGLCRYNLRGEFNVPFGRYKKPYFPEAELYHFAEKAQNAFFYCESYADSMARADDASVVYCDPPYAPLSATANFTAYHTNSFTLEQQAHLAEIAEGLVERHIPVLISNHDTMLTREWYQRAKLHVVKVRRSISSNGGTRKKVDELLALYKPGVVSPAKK

G9a = molecular target: T3, G9a (Homo sapiens, UniProt Q96KQ7); assay: Selectivity assay, G9a; assay type: biochemical; settings: compound 10 μM, 3H-SAM 1 μM
T3 sequence (Q96KQ7 1-1210): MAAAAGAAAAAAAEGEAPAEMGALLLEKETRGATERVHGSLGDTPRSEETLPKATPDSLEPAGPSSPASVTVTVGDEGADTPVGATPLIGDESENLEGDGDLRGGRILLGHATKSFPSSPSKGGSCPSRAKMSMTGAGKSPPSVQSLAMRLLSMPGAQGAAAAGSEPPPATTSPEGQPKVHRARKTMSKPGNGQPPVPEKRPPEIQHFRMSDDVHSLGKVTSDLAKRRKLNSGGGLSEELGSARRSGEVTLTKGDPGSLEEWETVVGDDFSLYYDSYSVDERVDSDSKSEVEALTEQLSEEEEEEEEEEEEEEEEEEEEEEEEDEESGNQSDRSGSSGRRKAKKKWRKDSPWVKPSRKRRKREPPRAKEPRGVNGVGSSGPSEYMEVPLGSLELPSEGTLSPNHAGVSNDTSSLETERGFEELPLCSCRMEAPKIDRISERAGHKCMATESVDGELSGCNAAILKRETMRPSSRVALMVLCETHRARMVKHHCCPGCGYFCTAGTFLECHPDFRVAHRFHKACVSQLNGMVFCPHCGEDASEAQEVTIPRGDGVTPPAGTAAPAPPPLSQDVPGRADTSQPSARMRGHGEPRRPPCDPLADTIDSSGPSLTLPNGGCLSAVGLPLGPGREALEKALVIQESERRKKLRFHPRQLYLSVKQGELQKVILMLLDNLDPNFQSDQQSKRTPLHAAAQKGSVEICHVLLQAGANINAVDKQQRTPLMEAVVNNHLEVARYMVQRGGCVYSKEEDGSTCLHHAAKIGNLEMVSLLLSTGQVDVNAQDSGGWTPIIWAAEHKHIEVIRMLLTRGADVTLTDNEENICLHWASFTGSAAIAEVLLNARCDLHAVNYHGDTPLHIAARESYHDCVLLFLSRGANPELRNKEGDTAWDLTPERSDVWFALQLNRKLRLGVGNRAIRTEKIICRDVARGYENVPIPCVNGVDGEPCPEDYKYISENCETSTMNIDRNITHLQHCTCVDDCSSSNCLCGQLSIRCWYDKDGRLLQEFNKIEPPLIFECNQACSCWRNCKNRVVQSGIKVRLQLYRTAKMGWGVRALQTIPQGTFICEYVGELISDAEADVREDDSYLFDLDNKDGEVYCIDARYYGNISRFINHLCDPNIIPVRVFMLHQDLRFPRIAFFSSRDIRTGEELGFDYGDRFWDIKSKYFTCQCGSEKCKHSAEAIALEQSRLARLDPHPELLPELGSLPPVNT

DNMT1 = DNMT1 (Homo sapiens, UniProt P26358); assay: Selectivity assay, DNMT1; assay type: biochemical; settings: [I] = 10 μM, [SAM] = 5.5 μM, 37 °C
MettL16 = molecular target: T4, MettL16 (Homo sapiens, UniProt Q86W50); assay: Selectivity assay, MettL16; assay type: biochemical; settings: [I] = 10 μM, [SAM] = 160 μM or 30 μM
T4 sequence (Q86W50 1-562): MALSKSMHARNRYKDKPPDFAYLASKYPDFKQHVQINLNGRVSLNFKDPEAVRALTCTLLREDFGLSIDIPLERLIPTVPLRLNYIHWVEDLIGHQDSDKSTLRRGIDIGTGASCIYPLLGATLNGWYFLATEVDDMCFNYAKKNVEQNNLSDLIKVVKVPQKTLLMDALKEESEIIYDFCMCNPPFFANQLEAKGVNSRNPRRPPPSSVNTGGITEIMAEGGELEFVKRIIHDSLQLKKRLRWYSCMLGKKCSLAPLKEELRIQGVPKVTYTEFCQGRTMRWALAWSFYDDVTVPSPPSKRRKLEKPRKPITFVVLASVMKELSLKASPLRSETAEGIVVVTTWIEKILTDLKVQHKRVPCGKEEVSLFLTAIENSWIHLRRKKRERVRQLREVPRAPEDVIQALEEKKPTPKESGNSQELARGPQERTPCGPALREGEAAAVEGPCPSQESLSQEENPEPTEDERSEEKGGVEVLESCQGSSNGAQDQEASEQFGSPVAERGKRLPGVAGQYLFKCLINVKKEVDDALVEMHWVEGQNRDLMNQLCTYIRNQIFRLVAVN

CamA = molecular target: T5, CamA (Clostridioides difficile, UniProt Q183J3); assay: Isothermal titration calorimetry; assay type: binding; settings: from that of compound 37
T5 sequence (Q183J3 1-577): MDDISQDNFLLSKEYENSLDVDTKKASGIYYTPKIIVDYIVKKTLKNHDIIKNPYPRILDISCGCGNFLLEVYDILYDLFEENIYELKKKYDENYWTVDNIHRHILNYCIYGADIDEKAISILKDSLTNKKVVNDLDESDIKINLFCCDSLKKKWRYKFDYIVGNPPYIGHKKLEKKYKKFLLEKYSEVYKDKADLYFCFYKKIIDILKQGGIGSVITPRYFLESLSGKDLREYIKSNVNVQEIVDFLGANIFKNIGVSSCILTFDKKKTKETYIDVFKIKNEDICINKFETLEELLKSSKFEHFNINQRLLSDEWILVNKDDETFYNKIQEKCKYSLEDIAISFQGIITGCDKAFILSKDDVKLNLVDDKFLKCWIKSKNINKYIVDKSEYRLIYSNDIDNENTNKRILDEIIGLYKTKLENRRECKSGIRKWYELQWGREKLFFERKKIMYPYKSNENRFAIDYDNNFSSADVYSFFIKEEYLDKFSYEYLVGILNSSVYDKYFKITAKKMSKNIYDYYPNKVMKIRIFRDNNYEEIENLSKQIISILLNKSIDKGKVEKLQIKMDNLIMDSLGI

Dnmt3a-Dnmt3L = Dnmt3a-Dnmt3L (Mus musculus, UniProt O88508); assay type: biochemical
CcrM = CcrM (Caulobacter vibrioides, UniProt P0CAW2); assay type: biochemical, Caulobacter crescentus
MettL5-Trm112 = MettL5-Trm112 (Homo sapiens, UniProt Q9NRN9); assay type: biochemical
Chain of MettL5-Trm112 (Q9NRN9 whole entry): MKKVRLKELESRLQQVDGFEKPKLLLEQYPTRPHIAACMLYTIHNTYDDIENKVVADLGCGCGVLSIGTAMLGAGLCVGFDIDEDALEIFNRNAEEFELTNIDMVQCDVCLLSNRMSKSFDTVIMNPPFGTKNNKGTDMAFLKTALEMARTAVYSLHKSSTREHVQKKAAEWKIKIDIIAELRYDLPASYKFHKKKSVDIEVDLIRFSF
Chain of MettL5-Trm112 (Q9UI30 whole entry partner): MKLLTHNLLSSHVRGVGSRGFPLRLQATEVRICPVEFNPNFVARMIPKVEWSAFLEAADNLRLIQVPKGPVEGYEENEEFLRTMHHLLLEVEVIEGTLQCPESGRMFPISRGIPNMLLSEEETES

Chain of CcrM (P0CAW2 whole entry): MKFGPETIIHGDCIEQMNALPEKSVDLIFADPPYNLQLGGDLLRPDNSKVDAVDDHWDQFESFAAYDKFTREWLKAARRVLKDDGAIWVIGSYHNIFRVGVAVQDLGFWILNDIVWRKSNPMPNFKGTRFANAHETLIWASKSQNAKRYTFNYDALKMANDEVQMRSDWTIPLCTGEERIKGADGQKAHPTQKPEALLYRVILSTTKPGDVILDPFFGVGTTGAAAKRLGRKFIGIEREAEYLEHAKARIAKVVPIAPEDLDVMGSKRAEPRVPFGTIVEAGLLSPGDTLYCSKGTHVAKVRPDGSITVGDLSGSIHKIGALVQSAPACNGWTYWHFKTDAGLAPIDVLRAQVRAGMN
Chain of DOT1L (Q8TEK3 whole entry): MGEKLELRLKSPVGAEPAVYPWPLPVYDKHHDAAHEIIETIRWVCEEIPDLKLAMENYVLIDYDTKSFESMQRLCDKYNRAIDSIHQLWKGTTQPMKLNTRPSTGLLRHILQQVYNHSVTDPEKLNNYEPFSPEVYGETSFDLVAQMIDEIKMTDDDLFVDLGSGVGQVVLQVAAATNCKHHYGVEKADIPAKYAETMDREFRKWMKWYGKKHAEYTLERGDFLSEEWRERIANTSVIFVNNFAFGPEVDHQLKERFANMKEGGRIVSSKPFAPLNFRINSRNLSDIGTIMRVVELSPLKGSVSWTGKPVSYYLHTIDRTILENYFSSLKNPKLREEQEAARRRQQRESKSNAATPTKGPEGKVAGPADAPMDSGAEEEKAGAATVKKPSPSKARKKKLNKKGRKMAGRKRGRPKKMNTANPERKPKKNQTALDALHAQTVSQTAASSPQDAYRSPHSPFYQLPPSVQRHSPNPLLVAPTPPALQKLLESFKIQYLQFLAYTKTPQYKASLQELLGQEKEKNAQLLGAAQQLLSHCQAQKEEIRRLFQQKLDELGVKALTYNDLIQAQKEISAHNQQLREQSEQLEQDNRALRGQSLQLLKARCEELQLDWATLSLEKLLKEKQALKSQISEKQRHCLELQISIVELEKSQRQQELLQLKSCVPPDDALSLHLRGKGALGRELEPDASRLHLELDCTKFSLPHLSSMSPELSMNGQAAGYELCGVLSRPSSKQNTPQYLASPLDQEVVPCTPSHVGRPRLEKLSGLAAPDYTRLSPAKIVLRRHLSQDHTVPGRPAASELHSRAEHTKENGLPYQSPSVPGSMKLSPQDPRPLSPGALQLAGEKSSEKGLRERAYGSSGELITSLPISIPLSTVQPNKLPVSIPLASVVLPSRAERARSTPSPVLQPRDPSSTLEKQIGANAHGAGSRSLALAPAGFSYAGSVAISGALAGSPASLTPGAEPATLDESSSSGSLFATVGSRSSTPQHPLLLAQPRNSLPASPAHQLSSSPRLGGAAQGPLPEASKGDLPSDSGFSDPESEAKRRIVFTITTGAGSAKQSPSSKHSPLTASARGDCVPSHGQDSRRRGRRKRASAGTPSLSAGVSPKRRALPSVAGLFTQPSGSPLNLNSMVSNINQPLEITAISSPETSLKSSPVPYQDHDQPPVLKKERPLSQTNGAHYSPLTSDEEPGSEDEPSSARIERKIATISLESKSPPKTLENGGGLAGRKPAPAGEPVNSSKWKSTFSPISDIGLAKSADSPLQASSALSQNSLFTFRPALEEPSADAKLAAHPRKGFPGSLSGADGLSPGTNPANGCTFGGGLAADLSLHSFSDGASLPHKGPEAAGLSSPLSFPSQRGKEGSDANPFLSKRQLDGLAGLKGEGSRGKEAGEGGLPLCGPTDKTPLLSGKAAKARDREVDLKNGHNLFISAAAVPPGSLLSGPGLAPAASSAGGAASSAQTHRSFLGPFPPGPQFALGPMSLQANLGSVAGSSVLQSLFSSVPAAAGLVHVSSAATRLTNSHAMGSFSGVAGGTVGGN
Chain of DNMT1 (P26358 351-1600): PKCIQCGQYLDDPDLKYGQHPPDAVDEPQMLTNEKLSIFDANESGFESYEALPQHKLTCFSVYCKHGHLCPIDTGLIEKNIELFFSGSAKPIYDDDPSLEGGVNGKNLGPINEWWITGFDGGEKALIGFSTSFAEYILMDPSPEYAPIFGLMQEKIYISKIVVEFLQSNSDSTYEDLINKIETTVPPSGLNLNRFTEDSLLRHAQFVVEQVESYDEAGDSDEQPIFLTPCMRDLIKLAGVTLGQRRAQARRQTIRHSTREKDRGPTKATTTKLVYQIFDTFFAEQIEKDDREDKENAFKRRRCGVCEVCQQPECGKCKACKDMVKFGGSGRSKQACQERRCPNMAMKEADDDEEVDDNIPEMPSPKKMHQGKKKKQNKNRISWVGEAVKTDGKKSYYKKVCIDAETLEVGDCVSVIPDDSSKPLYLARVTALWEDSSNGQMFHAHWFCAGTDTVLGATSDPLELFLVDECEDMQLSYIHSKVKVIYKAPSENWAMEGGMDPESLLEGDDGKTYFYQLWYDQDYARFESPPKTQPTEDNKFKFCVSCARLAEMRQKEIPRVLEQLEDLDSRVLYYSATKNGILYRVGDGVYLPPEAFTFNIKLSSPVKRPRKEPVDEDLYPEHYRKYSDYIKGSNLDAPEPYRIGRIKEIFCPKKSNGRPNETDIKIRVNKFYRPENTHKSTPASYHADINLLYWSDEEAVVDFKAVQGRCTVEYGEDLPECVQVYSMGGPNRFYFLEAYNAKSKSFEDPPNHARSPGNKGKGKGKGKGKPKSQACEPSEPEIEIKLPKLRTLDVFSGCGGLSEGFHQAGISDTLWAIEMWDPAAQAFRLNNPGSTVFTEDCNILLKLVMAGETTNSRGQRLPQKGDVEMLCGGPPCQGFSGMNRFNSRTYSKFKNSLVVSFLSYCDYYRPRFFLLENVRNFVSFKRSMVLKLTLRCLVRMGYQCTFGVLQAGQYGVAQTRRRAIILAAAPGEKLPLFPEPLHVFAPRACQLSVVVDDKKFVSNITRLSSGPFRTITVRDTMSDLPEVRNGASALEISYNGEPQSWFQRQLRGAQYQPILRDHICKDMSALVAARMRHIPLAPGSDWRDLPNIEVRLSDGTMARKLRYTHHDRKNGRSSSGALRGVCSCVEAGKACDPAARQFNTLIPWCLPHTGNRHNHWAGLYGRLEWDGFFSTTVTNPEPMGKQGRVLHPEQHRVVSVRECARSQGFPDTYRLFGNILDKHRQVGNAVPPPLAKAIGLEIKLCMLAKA
Chain of MettL3-MettL14 (Q86U44 whole entry): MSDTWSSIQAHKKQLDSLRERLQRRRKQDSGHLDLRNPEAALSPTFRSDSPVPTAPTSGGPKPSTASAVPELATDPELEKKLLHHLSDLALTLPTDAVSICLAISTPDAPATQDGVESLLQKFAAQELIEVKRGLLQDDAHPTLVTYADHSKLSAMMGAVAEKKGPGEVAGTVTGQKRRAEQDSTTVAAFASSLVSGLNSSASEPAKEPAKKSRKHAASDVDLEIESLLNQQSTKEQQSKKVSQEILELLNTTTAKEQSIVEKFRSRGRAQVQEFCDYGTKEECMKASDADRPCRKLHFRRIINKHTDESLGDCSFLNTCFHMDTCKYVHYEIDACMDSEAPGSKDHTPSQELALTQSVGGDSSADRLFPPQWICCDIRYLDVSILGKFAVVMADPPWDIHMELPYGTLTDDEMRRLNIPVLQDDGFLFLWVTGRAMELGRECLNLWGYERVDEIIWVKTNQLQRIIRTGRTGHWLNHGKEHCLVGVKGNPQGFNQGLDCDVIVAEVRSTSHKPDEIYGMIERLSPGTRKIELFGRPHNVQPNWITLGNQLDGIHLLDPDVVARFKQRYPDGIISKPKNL
Chain of MettL3-MettL14 (Q9HCE5 whole entry partner): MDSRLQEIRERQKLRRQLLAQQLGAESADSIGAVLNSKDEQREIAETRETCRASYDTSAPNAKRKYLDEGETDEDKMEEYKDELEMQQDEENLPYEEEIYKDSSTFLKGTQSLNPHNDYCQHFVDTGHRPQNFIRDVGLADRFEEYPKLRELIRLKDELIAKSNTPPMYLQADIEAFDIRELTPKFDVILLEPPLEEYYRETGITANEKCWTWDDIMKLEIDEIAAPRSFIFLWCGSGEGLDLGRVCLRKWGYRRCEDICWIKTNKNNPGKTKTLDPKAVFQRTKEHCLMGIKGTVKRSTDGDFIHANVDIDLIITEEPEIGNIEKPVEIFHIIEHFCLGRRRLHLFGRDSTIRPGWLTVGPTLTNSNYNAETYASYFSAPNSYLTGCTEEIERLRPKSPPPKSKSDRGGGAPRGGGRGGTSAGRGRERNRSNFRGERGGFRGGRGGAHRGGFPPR
Chain of PRMT1 (Q99873 whole entry): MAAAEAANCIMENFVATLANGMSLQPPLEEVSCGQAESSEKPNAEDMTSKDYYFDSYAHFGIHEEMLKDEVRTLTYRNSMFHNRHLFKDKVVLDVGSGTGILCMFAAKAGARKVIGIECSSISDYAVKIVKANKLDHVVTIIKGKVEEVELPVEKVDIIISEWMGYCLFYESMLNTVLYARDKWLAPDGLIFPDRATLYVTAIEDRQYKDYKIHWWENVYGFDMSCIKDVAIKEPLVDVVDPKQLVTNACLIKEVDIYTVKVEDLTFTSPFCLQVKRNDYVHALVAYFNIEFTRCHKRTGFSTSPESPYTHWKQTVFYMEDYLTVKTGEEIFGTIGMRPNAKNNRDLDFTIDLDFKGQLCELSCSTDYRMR

## CC(C)(C)OC(=O)N1CCC(CCNc2ncnc3c2ncn3[C@@H]2O[C@H](CO)[C@@H](O)[C@H]2O)CC1 [Compound 38, tert-Butyl-4-(2-((9-((2R,3R,4S,5R)-3,4-dihydroxy-5-(hydroxymethyl)tetrahydrofuran-2-yl)-9H-purin-6-yl)amino)ethyl)piperidine-1-carboxylate]
DOT1L
  inhibition of DOT1L: none of them showed any significant inhibition
MettL3-MettL14
  inhibition of MettL3-MettL14: none of them showed any significant inhibition
[1]
  inhibition of control radioligand specific binding, A1AR: minimal inhibition of specific binding
PRMT1
  inhibition of PRMT1: none of them showed any significant inhibition
PCIF1
  inhibition of PCIF1: none of them showed any significant inhibition
EZH2 complex
  inhibition of EZH2 complex: none of them showed any significant inhibition
Dam
  inhibition of Dam: none of them showed any significant inhibition
G9a
  inhibition of G9a: none of them showed any significant inhibition
DNMT1
  inhibition of DNMT1: none of them showed any significant inhibition
MettL16
  inhibition of MettL16: none of them showed any significant inhibition
CamA
  KD improved, fold: ~8 ×
Dnmt3a-Dnmt3L
  inhibition of Dnmt3a-Dnmt3L: none of them showed any significant inhibition
CcrM
  inhibition of CcrM: none of them showed any significant inhibition
MettL5-Trm112
  inhibition of MettL5-Trm112: none of them showed any significant inhibition
